We go through five compounds from patent publication US11802107B2, “Compounds and methods of use” (Signum Biosciences, Inc., priority 2017, dated 2023).

In experiment [1] the test system is IFNγ. The experiment is described as follows: PHA-induced IFNγ on PBMCs. The class given is cell-based. Conditions: Homo sapiens, PBMC, PHA-L 20 μg/mL, 24 hours, ELISA. The procedure: Cryopreserved human Peripheral Blood Mononuclear cells (PBMCs) from healthy adult donors were obtained from Zen Bio, Inc (Cat No. SER-PBMC-F). Cells were cultured in 96-well plates with lymphocyte media (Cat No. LYMPH-1) and were pre-treated with test materials (≤100 μM) for 2 hours and later co-treated with test materials and PHA-L (Sigma Aldrich, Cat No. 11249738001) at 20 μg/mL and incubated for 24 hours at 37° C. and 5% CO2. After incubation, cell media supernatants were harvested and used to measure cytokine levels (IL-2, IFNγ) using ELISA kits (R&D Systems® #DY202, #DY285). Results were represented as percent of inhibition relative to untreated and PHA-only treated cells. IC50 values were determined by non-linear regression analysis using the four-parameter logistic equation.

Experiment [2] has as its system IL-8. The experiment is described as follows: TPA-induced IL-8 on NHEKs. The following applies: Homo sapiens; NHEK, TPA 5 ng/mL, 24 hours, ELISA. In kind it is cell-based. How it is done:
Normal human epidermal keratinocytes (NHEKs) from neonatal donors were obtained from Thermo-Fisher (Cat No. C-001-5C). Cells were cultured in 96-well plates for 24 hours with EpiLife media (Cat No. MEPI500CA) supplemented with keratinocytes growth supplement (Cat No. S0015). On Day 2, media was removed and replaced with supplement-depleted medium for 24 hours. On Day 3, media was removed and cells were pre-treated with test materials (≤1 μM) for 2 hours and later co-treated with test materials and TPA (Sigma Aldrich, Cat No. P8139) at 5 ng/mL and incubated for 24 hours at 37° C. and 5% CO2. After incubation, cell media supernatants were harvested and used to measure pro-inflammatory cytokine levels (IL-8) using ELISA kit (BD Biosciences® #555244). Results were represented as percent of inhibition relative to untreated and TPA-only treated cells. IC50 values were determined by non-linear regression analysis using the four-parameter logistic equation.
On the technique in general: In an ELISA, binding on a coated surface is turned into a signal by an enzyme label.

Experiment [3] concerns IL1B (IL-1b). The experiment is described as follows: P. acnes-induced IL-1b gene on human PBMCs (qPCR). In kind it is cell-based. The following applies: PBMC, PBMCs + live P. acnes 1:1, test material 30 PM, 24 hours. How it is done:
Cryopreserved human Peripheral Blood Mononuclear cells (PBMCs) from healthy adult donors were obtained from Zen Bio, Inc (Cat No. SER-PBMC-F). Cells were cultured in 12-well plates with lymphocyte media (Cat No. LYMPH-1) and incubated with test materials ([…]) and live P. acnes (ATCC® 6919TM) at 1:1 PBMC: P. acnes bacteria ratio for 24 hours at 37° C. and 5% CO2. After incubation, cell media supernatants were harvested and used to measure pro-inflammatory cytokine levels (IL-8, TNF-α, IL-1b, IL-17) using ELISA kits (BD Biosciences® #557966, #555212, #555244; R&D Systems® #DY317). Total RNA was extracted from cells using the RNAqueous® kit (Ambion®; Cat No. 1912) and cDNA was obtained using the High Capacity RNA-to-cDNA kit (Applied Biosystems®; Cat No. 4387406). Quantitative PCR (qPCR) was performed using the TaqMan® Fast Advanced Master Mix (Applied Biosystems®; Cat No. 4444556) and specific TaqMan®-probes human gene primers CXCL8 (IL-8), IL1B (IL-1b), TNF (TNF-α), IL17A (IL-17A) and GAPDH to calculate the relative gene fold expression change per treatment. Gene expression analysis was performed using the comparative Ct method (also known as the 2-[delta][delta]Ct) approach by comparing the Ct values of P. acnes-only treated cells with the untreated samples and normalized to GAPDH gene expression as endogenous housekeeping gene.

Experiment [4] concerns HCAP18. Description: NHEK antimicrobial peptide gene expression, hCAP18. The class given is cell-based, human. The following applies: 10 μM, 24 hours, qPCR, normalized to GAPDH. The procedure: Normal human epidermal keratinocytes (NHEKs) from neonatal donors were obtained from Thermo-Fisher (Cat No. C-001-5C). Cells were cultured in 6-well plates for 24 hours before treatments with EpiLife media (Cat No. MEPI500CA) supplemented with keratinocytes growth supplement (Cat No. 50015). On Day 2, media was removed and incubated with test materials (10 μM) for 24 hours at 37° C. and 5% CO2. On Day 3, total RNA was extracted from cells using the RNAqueous® kit (Ambion®; Cat No. 1912) and cDNA was obtained using the High Capacity RNA-to-cDNA kit (Applied Biosystems®; Cat No. 4387406). Quantitative PCR (qPCR) was performed using the TaqMan® Fast Advanced Master Mix (Applied Biosystems®; Cat No. 4444556) and specific TaqMan®-probes human gene primers DEFB4B (hBD2), DEFB103 (hBD3), HCAP18 and GAPDH to calculate the relative gene fold expression change per treatment. Gene expression analysis was performed using the comparative Ct method (also known as the 2-[delta][delta]Ct) approach by comparing the Ct values of the treated samples with the untreated samples and normalized to GAPDH gene expression as endogenous housekeeping gene. Results were represented as fold-expression/untreated cells.
A general note: In qPCR the cycle at which signal appears reflects the starting amount.

Experiment [5] has as its system PHA-induced cytokines. Description: PHA-induced cytokines on PBMCs (Example F). The class given is cell-based, human. Conditions: PHA-L instead of anti-CD3/CD28 beads. The procedure:
Cryopreserved human Peripheral Blood Mononuclear cells (PBMCs) from healthy adult donors were obtained from Zen Bio, Inc (Cat No. SER-PBMC-F). Cells were cultured in 96-well plates with lymphocyte media (Cat No. LYMPH-1) and were pre-treated with test materials (≤100 μM) for 2 hours and later co-treated with test materials and anti-CD3/CD28 beads (Thermo-Fisher; Cat No. 11131D) at 1:0.4 PBMC:bead ratio for 24 hours at 37° C. and 5% CO2. After incubation, cell media supernatants were harvested and used to measure cytokine levels (IL-4, IL-5, IL-10) using ELISA kits (BD Biosciences® #555194, #555157; R&D Systems® #DY317). Results were represented as percent of inhibition relative to untreated and anti-CD3/CD28 beads-only treated cells. IC50 values were determined by non-linear regression analysis using the four-parameter logistic equation.
By a similar method, but instead of anti-CD3/CD28 beads (Thermo-Fisher; Cat No. 11131D), compounds A, C, T and E were treated with LPS (Sigma Aldrich, Cat. No. LF4321) to measure inhibition of LPS-induced cytokines, and compounds C and T were treated with PHA-L (Sigma Aldrich, Cat No. 11249738001) to measure inhibition of PHA-induced cytokines.

With `N#Cc1ccc(Oc2ccc3c(c2)COB3O)cc1` [AN2728, reference compound], the IC50 – broadly, the concentration at which inhibition is half-maximal – came to 300 nM in experiment [1] and 20 nM in experiment [2].
With `C/C(=C\CSC[C@H](NC(=O)N(C)CC(=O)O)C(=O)O)CCCC(C)CCCC(C)CCCC(C)C` (stereo partly drawn) [Compound C, (2R)-2-{[(carboxymethyl)(methyl)carbamoyl]amino}-3-{[(2E)-3,7,11,15-tetramethylhexadec-2-en-1-yl]sulfanyl}propanoic acid], the inhibition (commonly the drop in the measured response relative to a control, in per cent) at 30 pM in experiment [3] amounted to 0%. Moreover, the IC50 in experiment [1] was above 10000 nM; in experiment [2] it was 20 nM. The hCAP18 gene expression in experiment [4] was 0.5 Fold-expression/untreated cells. In experiment [5], the “inhibition of PHA-induced cytokines” value is “did not show significant inhibition”.
As to `C/C(=C\CSC[C@H](NC(=O)N1CCC[C@H]1C(=O)O)C(=O)O)CCCC(C)CCCC(C)CCCC(C)C` (some centres unmarked) [Compound E], the inhibition at 30 pM in experiment [3] is 20%. Besides, the IC50 in experiment [1] was 1400 nM. In addition, in experiment [4], the hCAP18 gene expression was 0.7 Fold-expression/untreated cells.
On the same counts, the results for `C/C(=C\CSCC(NC(=O)N(CC(=O)O)CC(=O)O)C(=O)O)CCCC(C)CCCC(C)CCCC(C)C` (centres unmarked) [Compound G] are 10%, above 10000 nM and 0.6 Fold-expression/untreated cells.
As to `C/C(=C\CSC[C@H](NC(=O)COCC(=O)O)C(=O)O)CCCC(C)CCCC(C)CCCC(C)C` (some centres unmarked) [Compound T], the inhibition at 30 pM in experiment [3] was 27%. The IC50 is above 10000 nM in experiment [1] and 30 nM in experiment [2]. Moreover, the “inhibition of PHA-induced cytokines” value in experiment [5] is listed as “did not show significant inhibition”.
